Our source for the IC50 values is US20080161366A1, “AMINOALKYL SUBSTITUTED ARYL SULFAMIDE DERIVATIVES AND METHODS OF THEIR USE” (Wyeth, priority 2006, published 2008).

A word on the IC50: it is the point on the concentration scale where inhibition reaches its midpoint.

Counter-ions that a name gives are not always drawn.

The target in the assay is human norepinephrine transporter (hNET) (Homo sapiens, UniProt P23975). Briefly: hNET uptake, Protocol B: cell based norepinephrine reuptake assay using recombinant hNET (MDCK-Net6 cells). The note with it: NE uptake (Protocol B) IC50 (nM), MDCK-Net6 cells, 3H-NE 16 nM.
human norepinephrine transporter (hNET), sequence (P23975 whole entry): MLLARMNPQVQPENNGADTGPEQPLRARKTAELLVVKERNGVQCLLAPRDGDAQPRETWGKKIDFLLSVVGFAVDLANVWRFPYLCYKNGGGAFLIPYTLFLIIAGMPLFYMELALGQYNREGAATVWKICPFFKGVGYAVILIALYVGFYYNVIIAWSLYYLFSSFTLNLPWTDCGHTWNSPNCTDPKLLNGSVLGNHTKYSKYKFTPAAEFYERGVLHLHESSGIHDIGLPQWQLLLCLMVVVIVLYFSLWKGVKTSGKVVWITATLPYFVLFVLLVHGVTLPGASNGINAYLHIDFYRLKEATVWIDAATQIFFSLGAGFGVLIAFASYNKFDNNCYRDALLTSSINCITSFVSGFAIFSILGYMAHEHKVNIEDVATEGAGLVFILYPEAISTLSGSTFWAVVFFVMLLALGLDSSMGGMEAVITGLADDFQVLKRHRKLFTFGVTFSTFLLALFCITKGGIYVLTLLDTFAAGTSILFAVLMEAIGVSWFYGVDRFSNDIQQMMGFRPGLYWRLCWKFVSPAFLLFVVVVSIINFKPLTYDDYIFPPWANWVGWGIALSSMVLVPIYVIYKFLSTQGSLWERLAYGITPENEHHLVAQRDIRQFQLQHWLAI
On to `CNCCCN1c2ccccc2N(c2ccc(Cl)cc2)S1(=O)=O` [Example 1, 3-[3-(4-chlorophenyl)-2,2-dioxido-2,1,3-benzothiadiazol-1(3H)-yl]-N-methylpropan-1-amine], for which the IC50 came out at 20.5 nM.

`CNCCCN1c2ccccc2N(c2ccccc2)S1(=O)=O` [Example 5, 3-(2,2-dioxido-3-phenyl-2,1,3-benzothiadiazol-1(3H)-yl)-N-methylpropan-1-amine]: the IC50 was 2.63 nM.

On to `CNCCCN1c2ccccc2N(c2ccc(F)cc2)S1(=O)=O` [Example 6, 3-[3-(4-fluorophenyl)-2,2-dioxido-2,1,3-benzothiadiazol-1(3H)-yl]-N-methylpropan-1-amine], for which the IC50 is 6.87 nM.

As for `CNCCCN1c2ccccc2N(c2ccc(OC)cc2)S1(=O)=O` [Example 7, 3-[3-(4-methoxyphenyl)-2,2-dioxido-2,1,3-benzothiadiazol-1(3H)-yl]-N-methylpropan-1-amine], the IC50 was found to be 1780 nM.

Turning to `CNCCCN1c2ccccc2N(c2ccc(C)cc2)S1(=O)=O` [Example 8, N-methyl-3-[3-(4-methylphenyl)-2,2-dioxido-2,1,3-benzothiadiazol-1(3H)-yl]propan-1-amine], the IC50 turned out to be 35.7 nM.

Regarding `CNCCCN1c2ccccc2N(c2ccccc2OC)S1(=O)=O` [Example 9, 3-[3-(2-methoxyphenyl)-2,2-dioxido-2,1,3-benzothiadiazol-1(3H)-yl]-N-methylpropan-1-amine], the IC50 turned out to be 12.6 nM.

Regarding `CNCCCN1c2ccccc2N(c2cccc(F)c2)S1(=O)=O` [Example 12, 3-[3-(3-fluorophenyl)-2,2-dioxido-2,1,3-benzothiadiazol-1(3H)-yl]-N-methylpropan-1-amine], the IC50 is 12.2 nM.

As for `CNCCCN1c2ccccc2N(c2cccc3ccccc23)S1(=O)=O` [Example 13, N-methyl-3-[3-(1-naphthyl)-2,2-dioxido-2,1,3-benzothiadiazol-1(3H)-yl]propan-1-amine], the IC50 turned out to be 534 nM.

Turning to `CNCCCN1c2ccccc2N(c2ccc3ccccc3c2)S1(=O)=O` [Example 14, N-methyl-3-[3-(2-naphthyl)-2,2-dioxido-2,1,3-benzothiadiazol-1(3H)-yl]propan-1-amine], the half-inhibitory concentration (IC50) was found to be 2620 nM.

Consider `CNCCCN1c2ccccc2N(c2cccc(C)c2)S1(=O)=O` [Example 15, N-methyl-3-[3-(3-methylphenyl)-2,2-dioxido-2,1,3-benzothiadiazol-1(3H)-yl]propan-1-amine], for which the IC50 came to 96.2 nM.

For the compound `CNCCCN1c2ccccc2N(c2ccccc2C)S1(=O)=O` [Example 16, N-methyl-3-[3-(2-methylphenyl)-2,2-dioxido-2,1,3-benzothiadiazol-1(3H)-yl]propan-1-amine], the IC50 turned out to be 7.06 nM.

As for `CNCCCN1c2ccccc2N(c2cccc(OC)c2)S1(=O)=O` [Example 17, 3-[3-(3-methoxyphenyl)-2,2-dioxido-2,1,3-benzothiadiazol-1(3H)-yl]-N-methylpropan-1-amine], the concentration for half-maximal inhibition (IC50) is 10.8 nM.

`CNCCCCN1c2ccccc2N(c2ccccc2)S1(=O)=O` [Example 18, 4-(2,2-dioxido-3-phenyl-2,1,3-benzothiadiazol-1(3H)-yl)-N-methylbutan-1-amine]: the half-inhibitory concentration (IC50) was 0.3 nM.

Consider `CNCCCN1c2cccnc2N(c2ccccc2)S1(=O)=O` [Example 24, 3-(2,2-dioxido-3-phenyl[1,2,5]thiadiazolo[3,4-b]pyridin-1(3H)-yl)-N-methylpropan-1-amine], for which the IC50 amounted to 60.9 nM.

On to `CNCCCN1c2cnccc2N(c2ccccc2)S1(=O)=O` [Example 25, 3-(2,2-dioxido-1-phenyl[1,2,5]thiadiazolo[3,4-c]pyridin-3(1H)-yl)-N-methylpropan-1-amine], for which the IC50 was found to be 146 nM.

For the compound `CNCCCN1c2ccccc2N(c2ccc(C)cn2)S1(=O)=O` [Example 26, N-methyl-3-[3-(5-methylpyridin-2-yl)-2,2-dioxido-2,1,3-benzothiadiazol-1(3H)-yl]propan-1-amine hydrochloride], the half-maximal inhibitory concentration (IC50) came to 57.1 nM.

As to `CNCCCN1c2ccccc2N(c2ncccc2C)S1(=O)=O` [Example 27, N-methyl-3-[3-(3-methylpyridin-2-yl)-2,2-dioxido-2,1,3-benzothiadiazol-1(3H)-yl]propan-1-amine hydrochloride], the IC50 was 11.7 nM.

Turning to `CNCCCN1c2ccccc2N(c2ccc(OC)nc2)S1(=O)=O` [Example 28, 3-[3-(6-methoxypyridin-3-yl)-2,2-dioxido-2,1,3-benzothiadiazol-1(3H)-yl]-N-methylpropan-1-amine hydrochloride], the IC50 came out at 1900 nM.

Consider `CCc1ccc(N2c3ccccc3N(CCCNC)S2(=O)=O)nc1` [Example 29, 3-[3-(5-ethylpyridin-2-yl)-2,2-dioxido-2,1,3-benzothiadiazol-1(3H)-yl]-N-methylpropan-1-amine hydrochloride], for which the IC50 is 434 nM.

On to `CNCCCN1c2ccccc2N(c2cc(C)ccn2)S1(=O)=O` [Example 30, N-methyl-3-[3-(4-methylpyridin-2-yl)-2,2-dioxido-2,1,3-benzothiadiazol-1(3H)-yl]propan-1-amine hydrochloride], for which the IC50 is 15.3 nM.

With `CNCCCN1c2ccccc2N(c2ccccn2)S1(=O)=O` [Example 31, 3-(2,2-dioxido-3-pyridin-2-yl-2,1,3-benzothiadiazol-1(3H)-yl)-N-methylpropan-1-amine hydrochloride], the IC50 turned out to be 23.6 nM.

`CNCCCN1c2ccccc2N(c2cccc(C)n2)S1(=O)=O` [Example 32, N-methyl-3-[3-(6-methylpyridin-2-yl)-2,2-dioxido-2,1,3-benzothiadiazol-1(3H)-yl]propan-1-amine hydrochloride]: the IC50 stood at 192 nM.

For the compound `CNCCCN1c2ccccc2N(c2cnccc2C)S1(=O)=O` [Example 33, N-methyl-3-[3-(4-methylpyridin-3-yl)-2,2-dioxido-2,1,3-benzothiadiazol-1(3H)-yl]propan-1-amine hydrochloride], the IC50 is 282 nM.

For `CNCCCN1c2ccccc2N(c2cccnc2)S1(=O)=O` [Example 34, 3-(2,2-dioxido-3-pyridin-3-yl-2,1,3-benzothiadiazol-1(3H)-yl)-N-methylpropan-1-amine hydrochloride], the IC50 is 85 nM.

For `CNCCCN1c2cc(F)ccc2N(c2ccccc2)S1(=O)=O` [Example 35, 3-(6-fluoro-2,2-dioxido-3-phenyl-2,1,3-benzothiadiazol-1(3H)-yl)-N-methylpropan-1-amine], the 50% inhibitory concentration (IC50) came to 20.6 nM.

In the case of `CNCCCN1c2ccc(Cl)cc2N(c2ccccc2)S1(=O)=O` [Example 36, 3-(5-Chloro-2,2-dioxido-3-phenyl-2,1,3-benzothiadiazol-1(3H)-yl)-N-methylpropan-1-amine], the IC50 is 11.3 nM.

As for `CNCCCN1c2cc(Br)ccc2N(c2ccccc2)S1(=O)=O` [Example 37, 3-(6-bromo-2,2-dioxido-3-phenyl-2,1,3-benzothiadiazol-1(3H)-yl)-N-methylpropan-1-amine], the half-inhibitory concentration (IC50) is 2360 nM.

In the case of `CNCCCN1c2ccc(C)cc2N(c2ccccc2)S1(=O)=O` [Example 38, N-methyl-3-(5-methyl-2,2-dioxido-3-phenyl-2,1,3-benzothiadiazol-1(3H)-yl)propan-1-amine], the IC50 was 13.9 nM.

On to `CNCCCN1c2c(F)cccc2N(c2ccccc2)S1(=O)=O` [Example 39, 3-(7-fluoro-2,2-dioxido-3-phenyl-2,1,3-benzothiadiazol-1(3H)-yl)-N-methylpropan-1-amine], for which the IC50 is 29.3 nM.

For the compound `CNCCCN1c2cc(C)ccc2N(c2ccccc2)S1(=O)=O` [Example 40, N-methyl-3-(6-methyl-2,2-dioxido-3-phenyl-2,1,3-benzothiadiazol-1(3H)-yl)propan-1-amine], the IC50 is 252 nM.

As for `CNCCCN1c2cccc(F)c2N(c2ccccc2)S1(=O)=O` [Example 41, 3-(4-fluoro-2,2-dioxido-3-phenyl-2,1,3-benzothiadiazol-1(3H)-yl)-N-methylpropan-1-amine], the IC50 was 2.41 nM.

In the case of `CNCCCN1c2c(F)cccc2N(c2cccc(F)c2)S1(=O)=O` [Example 42, 3-[7-fluoro-3-(3-fluorophenyl)-2,2-dioxido-2,1,3-benzothiadiazol-1(3H)-yl]-N-methylpropan-1-amine], the IC50 was 86.3 nM.

In the case of `CNCCCN1c2cc(C#N)ccc2N(c2ccccc2)S1(=O)=O` [Example 43, 3-[3-(methylamino)propyl]-1-phenyl-1,3-dihydro-2,1,3-benzothiadiazole-5-carbonitrile 2,2-dioxide], the concentration for half-maximal inhibition (IC50) turned out to be 1320 nM.

On to `CNCCCN1c2ccc(F)cc2N(c2ccccc2)S1(=O)=O` [Example 44, 3-(5-fluoro-2,2-dioxido-3-phenyl-2,1,3-benzothiadiazol-1(3H)-yl)-N-methylpropan-1-amine], for which the IC50 was 4.26 nM.

Take `CNCCCN1c2ccccc2N(c2cccc(F)c2F)S1(=O)=O` [Example 46, 3-[3-(2,3-difluorophenyl)-2,2-dioxido-2,1,3-benzothiadiazol-1(3H)-yl]-N-methylpropan-1-amine hydrochloride]: the IC50 came out at 4.84 nM.

Take `CNCCCN1c2ccccc2N(c2cc(F)cc(F)c2)S1(=O)=O` [Example 47, 3-[3-(3,5-difluorophenyl)-2,2-dioxido-2,1,3-benzothiadiazol-1(3H)-yl]-N-methylpropan-1-amine hydrochloride]: the IC50 was 2.73 nM.

Turning to `CNCCCN1c2ccccc2N(c2cc(F)ccc2F)S1(=O)=O` [Example 48, 3-[3-(2,5-difluorophenyl)-2,2-dioxido-2,1,3-benzothiadiazol-1(3H)-yl]-N-methylpropan-1-amine hydrochloride], the IC50 stood at 2.78 nM.

With `CNCCCN1c2ccccc2N(c2cccc(OC(F)(F)F)c2)S1(=O)=O` [Example 49, 3-{2,2-dioxido-3-[3-(trifluoromethoxy)phenyl]-2,1,3-benzothiadiazol-1(3H)-yl}-N-methylpropan-1-amine hydrochloride], the IC50 came out at 147 nM.

`CNCCCN1c2ccccc2N(c2ccccc2OC(F)(F)F)S1(=O)=O` [Example 50, 3-{2,2-dioxido-3-[2-(trifluoromethoxy)phenyl]-2,1,3-benzothiadiazol-1(3H)-yl}-N-methylpropan-1-amine hydrochloride]: the IC50 stood at 190 nM.
